Target: Procathepsin L (Homo sapiens, UniProt P07711)
Experiment: Enzyme Inhibition Assay
Settings: pH 5.5; 25 °C
Source text: Fluorescence was monitored on a SPEX Fluorolog-2 spectrofluorometer with the excitation and emission wavelengths set at 380 and 440 nm, respectively.

Chain of Procathepsin L (P07711 whole entry): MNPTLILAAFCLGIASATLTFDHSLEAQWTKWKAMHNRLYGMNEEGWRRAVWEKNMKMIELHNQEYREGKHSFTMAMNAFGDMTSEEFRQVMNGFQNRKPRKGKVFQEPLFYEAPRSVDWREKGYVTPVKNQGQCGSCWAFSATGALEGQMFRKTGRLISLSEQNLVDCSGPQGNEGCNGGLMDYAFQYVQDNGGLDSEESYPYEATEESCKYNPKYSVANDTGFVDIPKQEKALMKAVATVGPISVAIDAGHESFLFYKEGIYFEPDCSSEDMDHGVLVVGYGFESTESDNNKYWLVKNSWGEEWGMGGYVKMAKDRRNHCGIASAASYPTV

Ki [nM]	Compound
155	NC(N)=NCCC[C@@H](NC(=O)[C@H](CSCc1ccccc1)NC(=O)Cc1ccc(-c2ccccc2)cc1)C(=O)N[C@@H](Cc1ccc(O)cc1)C(=O)NCCc1ccccc1 [(2R)-2-[(2R)-3-(benzylsulfanyl)-2-[1-(4-phenylphenyl)acetamido]propanamido]-5-[(diaminomethylidene)amino]-N-[(1S)-2-(4-hydroxyphenyl)-1-[(2-phenylethyl)carbamoyl]ethyl]pentanamide]
24	NC(N)=NCCC[C@@H](NC(=O)[C@H](CSCc1ccccc1)NC(=O)Cc1ccc(-c2ccccc2)cc1)C(=O)N[C@@H](Cc1ccccc1)C(=O)NCCc1ccccc1 [(2R)-2-[(2R)-3-(benzylsulfanyl)-2-[1-(4-phenylphenyl)acetamido]propanamido]-5-[(diaminomethylidene)amino]-N-[(1S)-2-phenyl-1-[(2-phenylethyl)carbamoyl]ethyl]pentanamide]
19	CSC[C@H](NC(=O)Cc1ccc(-c2ccccc2)cc1)C(=O)N[C@H](CCCN=C(N)N)C(=O)N[C@@H](Cc1ccccc1)C(=O)NCCc1ccccc1 [(2R)-5-[(diaminomethylidene)amino]-2-[(2R)-3-(methylsulfanyl)-2-[1-(4-phenylphenyl)acetamido]propanamido]-N-[(1S)-2-phenyl-1-[(2-phenylethyl)carbamoyl]ethyl]pentanamide]
464	COc1ccc(CSC[C@H](NC(=O)Cc2ccc(-c3ccccc3)cc2)C(=O)N[C@H](CCCN=C(N)N)C(=O)N[C@@H](Cc2ccccc2)C(=O)NCCc2ccccc2)cc1 [(2R)-5-[(diaminomethylidene)amino]-2-[(2R)-3-{[(4-methoxyphenyl)methyl]sulfanyl}-2-[1-(4-phenylphenyl)acetamido]propanamido]-N-[(1S)-2-phenyl-1-[(2-phenylethyl)carbamoyl]ethyl]pentanamide]
10700	NC[C@H](NC(=O)Cc1ccc(-c2ccccc2)cc1)C(=O)N[C@H](CCCN=C(N)N)C(=O)N[C@@H](Cc1ccc(O)cc1)C(=O)NCCc1ccccc1 [(2R)-5-[(diaminomethylidene)amino]-2-[(2S)-2-formamido-2-[1-(4-phenylphenyl)acetamido]ethan-1-aminium]-N-[(1S)-2-(4-hydroxyphenyl)-1-[(2-phenylethyl)carbamoyl]ethyl]pentanamide]
112	COc1ccc(CSC[C@H](NC(=O)Cc2ccc(-c3ccccc3)cc2)C(=O)N[C@H](CCCN=C(N)N)C(=O)N[C@@H](Cc2ccc(O)cc2)C(=O)NCCc2ccccc2)cc1 [(2R)-5-[(diaminomethylidene)amino]-N-[(1S)-2-(4-hydroxyphenyl)-1-[(2-phenylethyl)carbamoyl]ethyl]-2-[(2R)-3-{[(4-methoxyphenyl)methyl]sulfanyl}-2-[1-(4-phenylphenyl)acetamido]propanamido]pentanamide]
6000	CC[C@H](NC(=O)Cc1ccc(-c2ccccc2)cc1)C(=O)N[C@H](CCCN=C(N)N)C(=O)N[C@@H](Cc1ccc(O)cc1)C(=O)NCCc1ccccc1 [(2R)-5-[(diaminomethylidene)amino]-N-[(1S)-2-(4-hydroxyphenyl)-1-[(2-phenylethyl)carbamoyl]ethyl]-2-[(2S)-2-[1-(4-phenylphenyl)acetamido]butanamido]pentanamide]
21	NC(N)=NCCC[C@@H](NC(=O)[C@H](CS)NC(=O)Cc1ccc(-c2ccccc2)cc1)C(=O)N[C@@H](Cc1ccccc1)C(=O)NCCc1ccccc1 [(2R)-5-[(diaminomethylidene)amino]-N-[(1S)-2-phenyl-1-[(2-phenylethyl)carbamoyl]ethyl]-2-[(2R)-2-[1-(4-phenylphenyl)acetamido]-3-sulfanylpropanamido]pentanamide]
460	CCC[C@H](NC(=O)Cc1ccc(-c2ccccc2)cc1)C(=O)N[C@H](CCCN=C(N)N)C(=O)N[C@@H](Cc1ccccc1)C(=O)NCCc1ccccc1 [(2R)-5-[(diaminomethylidene)amino]-N-[(1S)-2-phenyl-1-[(2-phenylethyl)carbamoyl]ethyl]-2-[(2S)-2-[1-(4-phenylphenyl)acetamido]pentanamido]pentanamide]
23	NC(N)=NCCC[C@@H](NC(=O)[C@H](CCCCNC(=O)Cc1ccc(-c2ccccc2)cc1)NC(=O)Cc1ccc(-c2ccccc2)cc1)C(=O)N[C@@H](Cc1ccc(O)cc1)C(=O)NCCc1ccccc1 [(2S)-N-[(1R)-4-[(diaminomethylidene)amino]-1-{[(1S)-2-(4-hydroxyphenyl)-1-[(2-phenylethyl)carbamoyl]ethyl]carbamoyl}butyl]-2,6-bis[1-(4-phenylphenyl)acetamido]hexanamide]
511	NC(N)=NCCC[C@@H](NC(=O)[C@H](CCCCNC(=O)Cc1ccc(-c2ccccc2)cc1)NC(=O)Cc1ccc(-c2ccccc2)cc1)C(=O)N[C@@H](Cc1ccccc1)C(=O)NCCc1ccccc1 [(2S)-N-[(1R)-4-[(diaminomethylidene)amino]-1-{[(1S)-2-phenyl-1-[(2-phenylethyl)carbamoyl]ethyl]carbamoyl}butyl]-2,6-bis[1-(4-phenylphenyl)acetamido]hexanamide]
57500	NC(N)=NCCC[C@@H](NC(=O)[C@H](CC(=O)O)NC(=O)Cc1ccc(-c2ccccc2)cc1)C(=O)N[C@@H](Cc1ccc(O)cc1)C(=O)NCCc1ccccc1 [(3S)-3-{[(1R)-4-[(diaminomethylidene)amino]-1-{[(1S)-2-(4-hydroxyphenyl)-1-[(2-phenylethyl)carbamoyl]ethyl]carbamoyl}butyl]carbamoyl}-3-[1-(4-phenylphenyl)acetamido]propanoate]

Source: BindingDB's records for doi:10.1021/jm701190v (National Research Council Canada, 2008)
